Measurements reported in the supplement of paper PMC10307832.

Legend:
Assay in all cases: relative viability (nuclei count vs DMSO), 5 days (fraction); higher = more cells survive
NCI-H1355 = system: NCI-H1355
Outline: (§1)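 Medians of duplicate plates are given as relative viability. That measure is the nuclei count in treated wells divided by the count in vehicle wells. Counts were taken on 4× images of lung cancer cell lines in 1536-well plates, 5 days after pin-tool dosing the day after seeding with one drug alone or a fixed anchor-drug dose plus five library-drug doses (not always all listed) in √10 steps.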

NCI-H2085 = system: NCI-H2085
Outline: as §1

LCLC-103H = system: LCLC-103H
Outline: as §1

LC-2-ad = system: LC-2-ad
Outline: as §1

A-427 = system: A-427
Outline: as §1

NCI-H441 = system: NCI-H441
Outline: as §1

NCI-H647 = system: NCI-H647
Outline: as §1

NCI-H2342 = system: NCI-H2342
Outline: as §1

NCI-H1651 = system: NCI-H1651
Outline: as §1

HCC-44 = system: HCC-44
Outline: as §1

201T = system: 201T
Outline: as §1

ChaGo-K-1 = system: ChaGo-K-1
Outline: as §1

NCI-H322M = system: NCI-H322M
Outline: as §1

NCI-H1915 = system: NCI-H1915
Outline: as §1

NCI-H2126 = system: NCI-H2126
Outline: as §1

NCI-H23 = system: NCI-H23
Outline: as §1

NCI-H1993 = system: NCI-H1993
Outline: as §1

H3255 = system: H3255
Outline: as §1

NCI-H2087 = system: NCI-H2087
Outline: as §1

RERF-LC-KJ = system: RERF-LC-KJ
Outline: as §1

HOP-62 = system: HOP-62
Outline: as §1

Which results are given for `Nc1cccc2c1CN(C1CCC(=O)NC1=O)C2=O` (configuration not stated) [Lenalidomide] + NC(=O)Nc1cc(-c2cccc(F)c2)sc1C(=O)N[C@H]1CCCNC1 [AZD7762] (partner 0.2 µM)?
relative viability (NCI-H1355; first compound 0.253 µM): 0.798; relative viability (NCI-H1355; first compound 0.8 µM): 0.59; relative viability (NCI-H1355; first compound 2.53 µM): 0.765; relative viability (NCI-H1355; first compound 8 µM): 0.696; relative viability (NCI-H2085; first compound 0.253 µM): 0.991; relative viability (NCI-H2085; first compound 0.8 µM): 1.02; relative viability (NCI-H2085; first compound 2.53 µM): 0.982; relative viability (NCI-H2085; first compound 8 µM): 0.919; relative viability (LCLC-103H; first compound 0.253 µM): 0.755; relative viability (LCLC-103H; first compound 0.8 µM): 0.796; relative viability (LCLC-103H; first compound 2.53 µM): 0.786; relative viability (LCLC-103H; first compound 8 µM): 0.589; relative viability (LC-2-ad; first compound 0.253 µM): 0.902; relative viability (LC-2-ad; first compound 0.8 µM): 0.928; relative viability (LC-2-ad; first compound 2.53 µM): 0.865; relative viability (LC-2-ad; first compound 8 µM): 0.94; relative viability (A-427; first compound 0.253 µM): 0.793; relative viability (A-427; first compound 0.8 µM): 0.878; relative viability (A-427; first compound 2.53 µM): 0.889; relative viability (A-427; first compound 8 µM): 0.887; relative viability (NCI-H441; first compound 0.253 µM): 1.3; relative viability (NCI-H441; first compound 0.8 µM): 1.15; relative viability (NCI-H441; first compound 2.53 µM): 1.17; relative viability (NCI-H441; first compound 8 µM): 1.26; relative viability (NCI-H647; first compound 0.253 µM): 0.485; relative viability (NCI-H647; first compound 0.8 µM): 0.401; relative viability (NCI-H647; first compound 2.53 µM): 0.499; relative viability (NCI-H647; first compound 8 µM): 0.498; relative viability (NCI-H2342; first compound 0.253 µM): 0.494; relative viability (NCI-H2342; first compound 0.8 µM): 0.402; relative viability (NCI-H2342; first compound 2.53 µM): 0.529; relative viability (NCI-H2342; first compound 8 µM): 0.449; relative viability (NCI-H1651; first compound 0.253 µM): 0.506; relative viability (NCI-H1651; first compound 0.8 µM): 0.436; relative viability (NCI-H1651; first compound 2.53 µM): 0.568; relative viability (NCI-H1651; first compound 8 µM): 0.44; relative viability (HCC-44; first compound 0.253 µM): 0.97; relative viability (HCC-44; first compound 0.8 µM): 0.836; relative viability (HCC-44; first compound 2.53 µM): 0.999; relative viability (HCC-44; first compound 8 µM): 1.14; relative viability (201T; first compound 0.253 µM): 0.594; relative viability (201T; first compound 0.8 µM): 0.848; relative viability (201T; first compound 2.53 µM): 0.617; relative viability (201T; first compound 8 µM): 0.529; relative viability (ChaGo-K-1; first compound 0.253 µM): 0.916; relative viability (ChaGo-K-1; first compound 0.8 µM): 0.853; relative viability (ChaGo-K-1; first compound 2.53 µM): 1.02; relative viability (ChaGo-K-1; first compound 8 µM): 0.893; relative viability (NCI-H322M; first compound 0.253 µM): 0.543; relative viability (NCI-H322M; first compound 0.8 µM): 0.55; relative viability (NCI-H322M; first compound 2.53 µM): 0.596; relative viability (NCI-H322M; first compound 8 µM): 0.442; relative viability (NCI-H1915; first compound 0.253 µM): 0.678; relative viability (NCI-H1915; first compound 0.8 µM): 0.699; relative viability (NCI-H1915; first compound 2.53 µM): 0.739; relative viability (NCI-H1915; first compound 8 µM): 0.682; relative viability (NCI-H2126; first compound 0.253 µM): 0.973; relative viability (NCI-H2126; first compound 0.8 µM): 1.03; relative viability (NCI-H2126; first compound 2.53 µM): 1.05; relative viability (NCI-H2126; first compound 8 µM): 0.947; relative viability (NCI-H23; first compound 0.253 µM): 0.253; relative viability (NCI-H23; first compound 2.53 µM): 0.22; relative viability (NCI-H23; first compound 8 µM): 0.229; relative viability (NCI-H1993; first compound 0.253 µM): 0.587; relative viability (NCI-H1993; first compound 0.8 µM): 0.646; relative viability (NCI-H1993; first compound 2.53 µM): 0.702; relative viability (NCI-H1993; first compound 8 µM): 0.539; relative viability (H3255; first compound 0.253 µM): 0.936; relative viability (H3255; first compound 0.8 µM): 0.747; relative viability (H3255; first compound 2.53 µM): 0.93; relative viability (H3255; first compound 8 µM): 0.823; relative viability (NCI-H2087; first compound 0.253 µM): 1.29; relative viability (NCI-H2087; first compound 2.53 µM): 1.29; relative viability (NCI-H2087; first compound 8 µM): 1.23; relative viability (RERF-LC-KJ; first compound 0.253 µM): 1.01; relative viability (RERF-LC-KJ; first compound 0.8 µM): 0.319; relative viability (RERF-LC-KJ; first compound 2.53 µM): 1.18; relative viability (RERF-LC-KJ; first compound 8 µM): 0.82; relative viability (HOP-62; first compound 0.253 µM): 0.552; relative viability (HOP-62; first compound 0.8 µM): 0.838; relative viability (HOP-62; first compound 2.53 µM): 0.711; relative viability (HOP-62; first compound 8 µM): 0.533
